Laboratory results as given in patent US20090143279A1 (priority 2007, published 2009).
Like-named read-outs stand apart in the source and are kept apart here.

Experiments:
[1] = system: cellular dehydrogenase activity; conditions: for MTT (composite Z-score): normalized score vs mock-treated (DMSO) wells
cytochrome c = assay type: cell-based, mouse; conditions: Conc 20 μM; for cyt c (composite Z-score): normalized score vs mock-treated (DMSO) wells
mtOXPHOS transcripts = assay type: cell-based, mouse; conditions: Conc 20 μM; for mitoOX (composite Z-score): normalized score vs mock-treated (DMSO) wells
OXPHOS gene expression = assay type: cell-based, mouse; conditions: Conc 20 μM; for GE-HTS (composite Z-score): normalized score vs mock-treated (DMSO) wells
C2C12 myotubes = conditions: for Viability (composite Z-score): normalized score vs mock-treated (DMSO) wells
reactive oxygen species = assay type: cell-based, mouse; conditions: for ROS (composite Z-score): normalized score vs mock-treated (DMSO) wells
[2] = system: mitochondrial membrane potential; assay type: cell-based, mouse; conditions: for ΔΨm (composite Z-score): normalized score vs mock-treated (DMSO) wells
nuOXPHOS transcripts = assay type: cell-based, mouse; conditions: Conc 20 μM; for nucOX (composite Z-score): normalized score vs mock-treated (DMSO) wells
[3] = composite Z-score vs mock-treated (DMSO) wells, Conc 20 μM
[4] = composite Z-score vs mock-treated (DMSO) wells
[5] = Table 4, C2C12 myotubes, 48 h, composite Z-score
[6] = normalized composite Z-score vs mock-treated (DMSO) wells, Conc 20 μM
[7] = normalized composite Z-score vs mock-treated (DMSO) wells
[8] = Table 4, C2C12 myotubes, 48 h, JC-1, composite Z-score
[9] = composite Z-score vs DMSO wells, Conc 20 μM
[10] = composite Z-score vs DMSO wells
[11] = composite Z-score vs DMSO, Conc 20 μM

cytochrome c, sequence (P62897 whole entry): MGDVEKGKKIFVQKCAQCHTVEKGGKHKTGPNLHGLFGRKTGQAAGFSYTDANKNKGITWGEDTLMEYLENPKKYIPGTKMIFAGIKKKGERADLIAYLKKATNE

“3alpha-hydroxy-3-deoxyangolensic acid methyl ester” gave an MTT [1, 3] of −1.268, a cyt c (cytochrome c; [4]) of −0.141 and a mitoOX (mtOXPHOS transcripts; [4]) of −0.377. For the same compound, the GE-HTS (OXPHOS gene expression; [4]) was −0.456, the Viability (C2C12 myotubes; [3]) was 0.949 and the ROS (reactive oxygen species; [3]) was 0.799. It also gave a ΔΨm [2, 3] of −0.043 and a nucOX (nuOXPHOS transcripts; [4]) of −0.474.

3beta-chloroandrostanone gave an MTT [1, 3] of −1.203, a cyt c (cytochrome c; [4]) of 1.021 and a mitoOX (mtOXPHOS transcripts; [4]) of −0.907. For the same compound, the GE-HTS (OXPHOS gene expression; [4]) was −1.190, the Viability (C2C12 myotubes; [3]) was −0.424 and the ROS (reactive oxygen species; [3]) was −0.077. For the same compound, the ΔΨm [2, 3] was −0.860 and the nucOX (nuOXPHOS transcripts; [4]) was −1.192.

For “3beta-hydroxydeoxydesacetoxy-7-oxogedunin”, the “MTT (composite Z-score)” value ([1]; Conc 20 μM) was −0.615, the “cyt c (composite Z-score)” value (cytochrome c) was 0.306 and the “mitoOX (composite Z-score)” value (mtOXPHOS transcripts) was −0.319. For the same compound, the “GE-HTS (composite Z-score)” value (OXPHOS gene expression) was −0.864, the “Viability (composite Z-score)” value (C2C12 myotubes; Conc 20 μM) was 0.688 and the “ROS (composite Z-score)” value (reactive oxygen species; Conc 20 μM) was 0.662. The “ΔΨm (composite Z-score)” value ([2]; Conc 20 μM) was −0.064 and the “nucOX (composite Z-score)” value (nuOXPHOS transcripts) was −1.027.

In the case of “7-deshydroxypyrogallin-4-carboxylic acid”, the MTT [1, 3] is reported as −0.460, the cyt c (cytochrome c; [4]) is reported as 0.419 and the mitoOX (mtOXPHOS transcripts; [4]) is reported as −0.770. The GE-HTS (OXPHOS gene expression; [4]) was −0.997, the Viability (C2C12 myotubes; [3]) was 0.121 and the ROS (reactive oxygen species; [3]) was −0.210. It also gave a ΔΨm [2, 3] of −1.109 and a nucOX (nuOXPHOS transcripts; [4]) of −1.039.

“12a-hydroxy-5-deoxydehydromunduserone [reference compound]” showed an MTT [1, 5] of −1.976, an MTT [1, 6] of −1.976 and a cyt c (cytochrome c; [7]) of −0.179. For the same compound, the mitoOX (mtOXPHOS transcripts; [7]) was 0.239, the GE-HTS (OXPHOS gene expression; [7]) was 0.211 and the Viability (C2C12 myotubes; [5]) was −0.940. It also gave a Viability (C2C12 myotubes; [6]) of −0.940, an ROS (reactive oxygen species; [5]) of 0.823 and an ROS (reactive oxygen species; [6]) of 0.823. The ΔΨm [2, 8] was −0.179, the ΔΨm [2, 6] was −0.179 and the nucOX (nuOXPHOS transcripts; [7]) was 0.193.

`C#CC1(O)CC[C@H]2[C@@H]3CCC4=CC(=O)CC[C@@H]4[C@H]3CC[C@@]21CC` (mixture of isomers) [norgestrel] was tested, and the MTT [1, 9] was −0.761, the cyt c (cytochrome c; [10]) was −0.027 and the mitoOX (mtOXPHOS transcripts; [10]) was −0.187. It also gave a GE-HTS (OXPHOS gene expression; [10]) of −0.225, a Viability (C2C12 myotubes; [9]) of −0.966 and an ROS (reactive oxygen species; [9]) of 0.831. It also gave a ΔΨm [2, 9] of −0.965 and a nucOX (nuOXPHOS transcripts; [10]) of −0.183.

For `C=CC(C)(O)CCC=C(C)C` (single isomer, unassigned; (+)) [(+)-linalool], the “MTT (composite Z-score)” value ([1]; Conc 20 μM) was −1.338, the “cyt c (composite Z-score)” value (cytochrome c) was 0.690 and the “mitoOX (composite Z-score)” value (mtOXPHOS transcripts) was −0.342. The “GE-HTS (composite Z-score)” value (OXPHOS gene expression) was −0.007, the “Viability (composite Z-score)” value (C2C12 myotubes; Conc 20 μM) was −0.653 and the “ROS (composite Z-score)” value (reactive oxygen species; Conc 20 μM) was 0.481. The “ΔΨm (composite Z-score)” value ([2]; Conc 20 μM) was −0.810 and the “nucOX (composite Z-score)” value (nuOXPHOS transcripts) was 0.131.

In the case of `O=C1c2ccc(O)cc2OC(c2cc(O)c(O)c(O)c2)C1O` (stereo in doubt) [dihydrorobinetin, reference compound], the “MTT (composite Z-score)” value ([1]; Conc 20 μM) is reported as −1.259, the MTT [1, 5] is reported as −1.259 and the “cyt c (composite Z-score)” value (cytochrome c) is reported as 0.082. For the same compound, the “mitoOX (composite Z-score)” value (mtOXPHOS transcripts) was −1.124, the “GE-HTS (composite Z-score)” value (OXPHOS gene expression) was −1.192 and the “Viability (composite Z-score)” value (C2C12 myotubes; Conc 20 μM) was −1.070. The Viability (C2C12 myotubes; [5]) was −1.070, the “ROS (composite Z-score)” value (reactive oxygen species; Conc 20 μM) was −0.393 and the ROS (reactive oxygen species; [5]) was −0.393. For the same compound, the “ΔΨm (composite Z-score)” value ([2]; Conc 20 μM) was −3.396, the ΔΨm [2, 8] was −3.396 and the “nucOX (composite Z-score)” value (nuOXPHOS transcripts) was −1.089.

`C[C@H](C[C@@H](O)[C@@H]1OC1(C)C)[C@@H]1CC[C@]2(C)C3=CC[C@H]4C(C)(C)C(=O)CC[C@]4(C)[C@H]3CC[C@@]12C` (stereo in doubt) [niloticin] showed an MTT [1, 3] of −0.481, a cyt c (cytochrome c; [4]) of 0.136 and a mitoOX (mtOXPHOS transcripts; [4]) of 0.151. For the same compound, the GE-HTS (OXPHOS gene expression; [4]) was 0.543, the Viability (C2C12 myotubes; [3]) was 1.304 and the ROS (reactive oxygen species; [3]) was 0.817. The ΔΨm [2, 3] was 0.461 and the nucOX (nuOXPHOS transcripts; [4]) was 0.648.

`CC[C@@H](C)C(=O)O[C@H]1[C@H](O)[C@H]2[C@@H](CN3C[C@@H](C)CC[C@H]3[C@@]2(C)O)[C@@H]2C[C@]34O[C@]5(O)[C@@H](OC(=O)[C@](C)(O)[C@@H](C)O)CC[C@@]3(C)[C@@H]5[C@@H](OC(C)=O)[C@@H](OC(C)=O)[C@H]4[C@@]21O` (stereo in doubt) [protoveratrine B] gave an MTT [1, 11] of 0.904, a cyt c (cytochrome c; composite Z-score vs DMSO) of −1.085 and a mitoOX (mtOXPHOS transcripts; composite Z-score vs DMSO) of −0.096. It also gave a GE-HTS (OXPHOS gene expression; composite Z-score vs DMSO) of 0.018, a Viability (C2C12 myotubes; [11]) of 0.708 and an ROS (reactive oxygen species; [11]) of 0.244. The ΔΨm [2, 11] was 0.942 and the nucOX (nuOXPHOS transcripts; composite Z-score vs DMSO) was 0.058.

Work on `CC(=O)O[C@@H]1CC2C(C)(C)C(=O)[C@@H]3O[C@@H]3[C@]2(C)C2CC[C@]3(C)C(=CC(=O)O[C@H]3c3ccoc3)[C@@]21C` (stereo partly drawn) [1 (2)alpha-epoxydeoxydihydrogedunin] yielded an MTT [1, 6] of −1.048, a cyt c (cytochrome c; [7]) of 0.022 and a mitoOX (mtOXPHOS transcripts; [7]) of −0.539. It also gave a GE-HTS (OXPHOS gene expression; [7]) of −0.801, a Viability (C2C12 myotubes; [6]) of 0.015 and an ROS (reactive oxygen species; [6]) of 2.784. The ΔΨm [2, 6] was 0.074 and the nucOX (nuOXPHOS transcripts; [7]) was −0.831.
